{
  "source": "patent US10913757B2",
  "about": "“Hydroxycinnamic derivatives, methods and uses thereof” (UNIVERSIDADE DO PORTO, priority 2016, dated 2021)",
  "key": {"[1]": {"test": "DPPH radical scavenging activity (TAC assay)", "type": "biochemical", "conditions": "ethanol, absorbance 515 nm", "text": "(§1) In an embodiment, the AntiOxCINs antioxidant ranking activity hierarchy was established by in vitro non-cell methods. The selected total antioxidant capacity (TAC) assays (DPPH, ABTS and GO) involved the spectrophotometric measurement of the radical absorbance decrease as a result of an in situ radical deactivation by an antioxidant. Compounds with higher antioxidant activity display lower IC50 values. […] This decrease was attenuated/ameliorated by the increment of the spacer length and/or the introduction of additional hydroxyl group in the aromatic ring.\n(§2) The radical scavenging activity of AntiOxCINs was evaluated by means of total antioxidant capacity assays based on DPPH., ABTS.^+ and GO. radicals. All these methods involved the spectrophotometric measurement of the absorbance decrease resulting from radical (DPPH., ABTS.^+ or GO.) deactivation with an antioxidant. The results were expressed in IC50, which is defined as the minimum antioxidant concentration necessary to reduce the amount of radical by 50%. Antioxidant assays were performed in a multiplate reader (Powerwave XS Microplate Reader) of Bio-Tech instruments.\nIn an embodiment, the DPPH. radical scavenging activity was performed as follows: solutions of the test compounds with increasing concentrations (range between 0 μM and 500 μM) were prepared in ethanol. A DPPH′ ethanolic solution (6.85 mM) was also prepared and then diluted to reach the absorbance of 0.72±0.02 at 515 nm. Each compound solution (20 μL) was added to 180 μL of DPPH′ solution in triplicate, and the absorbance at 515 nm was recorded minutely over 45 minutes. […] Dose-response curves were established for the determination of IC50 values. Data are means±SEM of three independent experiments."}, "[2]": {"test_system": "mouse myoblast C2C12 cells", "conditions": "cited from earlier work"}, "[3]": {"test": "ABTS radical cation scavenging activity (TAC assay)", "type": "biochemical", "conditions": "ethanol", "text": "as §1, §2\nIn an embodiment, the ABTS.^+ scavenging activity was evaluated as follows: ethanolic solutions of the test compounds with increasing concentrations (range between 10 μM and 500 μM) were prepared. ABTS.^+ radical cation solution was obtained by addition of 150 mM aqueous potassium persulfate solution (163 μL) to 10 mL of 7 mM aqueous ABTS solution followed by storage in the dark at room temperature for 16 h (2.45 mM final concentration). The solution was then diluted in ethanol to reach the absorbance of 0.72±0.02. After addition of the compound (20 μL), in triplicate, to ABTS.^+ solution (180 μL) the spectrophotometric measurement was carried out each minute over 15 minutes. […] Dose-response curves were established for the determination of IC50 values. Data are means±SEM of three independent experiments."}, "[4]": {"test": "Lipophilic properties by electrochemistry at ITIES (transfer potential)", "type": "physicochemical", "conditions": "aqueous phase to 1,6-dichlorohexane, DPV, C=0.32 mM", "procedure": "In an embodiment, AntiOxCINs lipophilic properties were evaluated at physiological pH by electrochemistry. The used technique is often used to mimic the transfer of ionic drugs through biological membranes as the process occurs at the interface between two immiscible electrolyte solutions (ITIES). The transfer potential (Etr) at which the ionic drug, initially present in the aqueous phase (C=0.32 mM), is transferred to the 1,6-dichlorohexane (DCH) phase is measured by differential pulse voltammetry (DPV). In the ITIES model, the transfer potential (Etr) becomes less positive with the increasing of the drug lipophilic character.\n(§3) In an embodiment, the electrochemical analytical data was obtained using a computer controlled potentiostat Autolab PGSTAT302N (Metrohm Autolab, Utrecht, Netherlands). Generally, cyclic voltammetry (CV) data was acquired at a scan rate of 50 mVs^−1. Differential pulse voltammetry (DPV) results were acquired at a step potential of 4 mV, pulse amplitude of 50 mV and scan rate of 8 mVs^−1. The electrochemical signals were monitored by the General Purpose Electrochemical System (GPES) version 4.9, software package. All electrochemical experiments were performed at room temperature in an electrochemical cell that was placed in a Faraday cage in order to minimize the contribution of background noise to the analytical signal.\n(§4) In an embodiment, the process of evaluation of AntiOxCINs redox properties was conducted as follows: stock solutions of each compound (10 mM) were prepared by dissolving the appropriate amount in ethanol. The voltammetric working solutions were prepared in the electrochemical cell, at a final concentration of 0.1 mM. The […] supporting electrolyte was prepared by diluting […] to 100 mL. Voltammetric data was acquired in a three-electrode system consisting of a glassy carbon electrode (GCE, d=2 mm) as working electrode, a counter electrode of platinum wire and a saturated Ag/AgCl reference electrode. In an embodiment, the evaluation of AntiOxCINs lipophilic properties was performed as follows: the electrochemical cell was a four-electrode system with arrays of micro liquid-liquid interfaces (μlTIES) containing two Ag/AgCl reference electrodes and two counter electrodes of Pt, one in each phase. The microporous membrane was sealed with a fluorosilicone sealant (Dow Corning 730) onto a glass cylinder which was filled with 4.0 mL of the aqueous phase, where the aliquots of AntiOxCINs solutions were added. The membrane was then immersed into the organic phase contained in the cell. The organic phase reference solution (a 2 mM BTPPACI+2 mM NaCl aqueous solution) was mechanically stabilized The aqueous supporting electrolyte solution was a Tris-HCl buffer 10 mM pH 7.0."}, "[5]": {"test": "GO radical scavenging activity (TAC assay)", "type": "biochemical", "conditions": "ethanol, absorbance 428 nm", "text": "as §1, §2\nIn an embodiment, the GO′ scavenging activity was evaluated as follows: solutions of test compounds with concentrations from 5 μM to 75 μM were prepared in ethanol. An ethanolic solution of 5 mM GO′ was prepared and diluted to reach the absorbance of 1.00±0.02 at 428 nm. The addition (20 μL) in triplicate of compound solution to GO. solution (180 μL) was followed by absorbance measurement at 428 nm over 30 minutes, in the dark, at room temperature. […] Dose-response curves were established for the determination of IC50 values. Data are means±SEM of three independent experiments."}, "[6]": {"test": "Redox properties by differential pulse and cyclic voltammetry", "type": "physicochemical", "procedure": "In an embodiment, and as an example, AntiOxCINs redox properties were evaluated (Table 1). Redox potentials are correlated with the ability of an antioxidant to donate a hydrogen atom and/or an electron to a free radical.\nHowever, for pyrogallol derivatives (AntiOxCIN4, AntiOxCIN5 and AntiOxCIN7), a significant decrease in redox potentials was observed (Ep=0.034-0.057 V) (Table 1).\nThe voltammograms presented a diffusion peak and an adsorption post-peak at a more anodic potential correspondent to the oxidation of dissolved and adsorbed forms of the compounds, respectively. The oxidation waves can be related to the oxidation process of the pyrogallol moiety. The cyclic voltammograms also show the presence of two overlapped anodic peaks. The anodic peaks appeared to correspond to irreversible processes as any distinct reduction wave was not seen on the cathodic sweep. The existence of the additional phenolic group in the pyrogallol systems, when compared with the catechol ones, seems to influence the stabilization of the semiquinone intermediate and in turn the oxidative mechanism.\nas §3, §4"}},
  "note": "Marks after values point to notes of the source that are not given here.",
  "data": [
    {"compound": "CS(=O)(=O)[O-].O=C(/C=C/c1ccc(O)c(O)c1)NCC[P+](c1ccccc1)(c1ccccc1)c1ccccc1", "note": "[AntiOxCIN1, reference compound]", "values": [
      {"measurement": "IC50", "setting": "[1]", "result": 35.4, "unit": "µM"},
      {"measurement": "protection against oxidative stress stressors (H2O2, linoleic acid-hydroperoxides)", "setting": "[2]", "result": "protected"},
      {"measurement": "IC50", "setting": "[3]", "result": 33.3, "unit": "µM"},
      {"measurement": "Etr (transfer potential)", "setting": "[4]", "result": 0.572, "unit": "V"},
      {"measurement": "IC50", "setting": "[5]", "result": 4.5, "unit": "µM"},
      {"measurement": "reversibility of the oxidation reaction", "setting": "[6]; cyclic voltammetry, physiological pH", "result": "reversible reaction"},
      {"measurement": "Ep (redox potential)", "setting": "[6]; physiological pH (7.4), voltammetry, listed as AntiOxClN1", "result": "0.166^a) V"}
    ]}
  ]
}
